Reference: the NIST ThermoML archive (doi:10.1021/je0600810)

Tests used:
[1] = 101.33 kPa, Liquid; for viscosity: Capillary tube (Ostwald / Ubbelohde) method
[2] = φn = volume fraction of the nth substance listed; details: 101 kPa, Liquid

CO [methanol]
[1]
Details	mass density [kg/m3]	viscosity [mPa·s]
298.15 K	786.59	0.5446
308.15 K	777.28	0.4747
318.15 K	767.74	0.4185

CO [methanol] + O
[2]
Details	mass density, 298.15 K [kg/m3]	mass density, 308.15 K [kg/m3]	mass density, 318.15 K [kg/m3]	viscosity, 298.15 K [mPa·s]	viscosity, 308.15 K [mPa·s]	viscosity, 318.15 K [mPa·s]
φ1 = 0.01	982.97	979.73	976.04	1.084	0.8665	0.702
φ1 = 0.2	969.63	966.32	961.62	1.311	1.022	0.8075
φ1 = 0.3	956.2	951.6	946.26	1.471	1.142	0.8957
